In US20090075978A1, “SUBSTITUTED PROPIOLIC ACID AMIDES AND THEIR USE FOR PRODUCING DRUGS” (Grunenthal GmbH, priority 2005, published 2009):

Target: T1, mGluR5 receptor (pig) (Sus scrofa, UniProt I3LUI7)
T1 construct: 450 μg of protein from brain homogenate is incubated; from tissue; host or cells: pig brain hemispheres without medulla, cerebellum and pons
Test: [3H]-MPEP binding in the mGluR5 receptor binding assay (pig brain homogenate)
Conditions: 5 nM [3H]-MPEP; for IC50: pig brain homogenate
Experimental: I. Method for Determining the Inhibition of [^3H]-MPEP Binding in the mGluR5 Receptor Binding Assay
Pig brain homogenate is produced by homogenisation (Polytron Pt 3000, Kinematica AG, 10,000 revolutions per minute for 90 seconds) of pig brain hemispheres without medulla, cerebellum and pons in a buffer of pH 8.0 (30 mM Hepes, Sigma, order number H3375+1 tablet Complete Roche Diagnostics, order number 1836145 made up to 100 ml) in a ratio of 1:20 (brain weight/volume) and differential centrifugation at 900×g and 40,000×g. 450 μg of protein from brain homogenate is incubated in each case in 250 μl incubation batches in 96-well microtitre plates with 5 nM ^3[H]-MPEP (Tocris, order number R1212) (MPEP=[…]) and the compounds to be investigated ([…]) in the buffer (as above) at room temperature for 60 min.
The batches are then filtered with the assistance of a Brandel Cell Harvester (Brandel, Robotic 9600 model) on Unifilter plates with glass filter mats (Perkin Elmer, order number 6005177) and then washed 3 times with buffer (as above) using 250 μl per sample. The filter plates are then dried for 60 min at 55° C. Then 30 μl of Ultima Gold™ scintillating material (Packard BioScience, order number 6013159) is added per well and after 3 hours the samples are measured using the β counter (Microbeta, Perkin Elmer). Nonspecific binding is determined by the addition of 10 μM MPEP (Tocris, order number 1212).

[1] = 10 μM test compound, 450 μg protein from pig brain homogenate, 60 min, room temperature

T1 sequence (I3LUI7 19-1212): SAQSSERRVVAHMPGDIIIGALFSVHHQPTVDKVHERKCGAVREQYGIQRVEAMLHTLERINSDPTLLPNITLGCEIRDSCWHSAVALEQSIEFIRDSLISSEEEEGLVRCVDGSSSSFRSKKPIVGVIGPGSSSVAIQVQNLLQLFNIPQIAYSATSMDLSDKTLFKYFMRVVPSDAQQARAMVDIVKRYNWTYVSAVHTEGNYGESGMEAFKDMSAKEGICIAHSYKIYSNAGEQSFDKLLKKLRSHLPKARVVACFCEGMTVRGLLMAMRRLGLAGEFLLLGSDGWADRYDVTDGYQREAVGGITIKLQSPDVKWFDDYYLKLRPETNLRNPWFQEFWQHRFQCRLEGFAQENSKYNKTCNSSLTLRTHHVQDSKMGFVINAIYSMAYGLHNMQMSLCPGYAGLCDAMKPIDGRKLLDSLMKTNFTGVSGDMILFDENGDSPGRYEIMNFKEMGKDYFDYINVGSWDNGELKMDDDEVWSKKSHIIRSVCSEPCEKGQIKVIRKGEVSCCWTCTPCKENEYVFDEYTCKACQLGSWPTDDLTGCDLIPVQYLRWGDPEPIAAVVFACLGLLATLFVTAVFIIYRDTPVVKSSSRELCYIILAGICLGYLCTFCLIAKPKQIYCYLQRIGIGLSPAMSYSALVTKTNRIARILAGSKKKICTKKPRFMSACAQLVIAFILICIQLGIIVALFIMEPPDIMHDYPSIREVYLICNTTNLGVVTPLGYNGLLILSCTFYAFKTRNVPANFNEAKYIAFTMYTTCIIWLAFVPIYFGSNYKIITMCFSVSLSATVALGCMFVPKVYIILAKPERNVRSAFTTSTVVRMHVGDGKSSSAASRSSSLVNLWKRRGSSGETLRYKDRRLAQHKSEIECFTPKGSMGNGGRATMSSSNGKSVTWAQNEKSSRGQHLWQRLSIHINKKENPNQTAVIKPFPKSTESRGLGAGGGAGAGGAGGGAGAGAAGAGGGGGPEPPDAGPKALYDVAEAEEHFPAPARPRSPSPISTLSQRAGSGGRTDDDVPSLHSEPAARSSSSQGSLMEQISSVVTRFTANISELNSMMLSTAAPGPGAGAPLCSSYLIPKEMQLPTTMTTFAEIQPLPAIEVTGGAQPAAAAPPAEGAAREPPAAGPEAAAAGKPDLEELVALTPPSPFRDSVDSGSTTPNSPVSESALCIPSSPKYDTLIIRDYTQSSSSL

IC50 [nM]	SMILES	mGluR5 receptor (pig) (10 μM) Inhibition (%) [1] [%]	other results
	CC1Cc2ccccc2N1C(=O)C#Cc1ccccc1F (centres unmarked) [Example 38, 1-(3-(2-fluorophenyl)-propiolyl)-2-methyl-indoline]	49	
76	COc1ccc2c(c1)CN(C(=O)C#Cc1cccc(Cl)c1)CC2 [Example 22, 2-(3-(3-chlorophenyl)-propiolyl)-7-methoxy-1,2,3,4-tetrahydro-isoquinoline]		
240	COc1ccc2c(c1)CCN(C(=O)C#Cc1cccc(Cl)c1)C2 [Example 17, 2-(3-(3-chlorophenyl)-propiolyl)-6-methoxy-1,2,3,4-tetrahydro-isoquinoline]		
	COc1ccc(C#CC(=O)N2CCc3ccccc3C2)cc1 [Example 53, 2-(3-(4-methoxyphenyl)-propiolyl)-1,2,3,4-tetrahydro-isoquinoline]	24	
320	O=C(C#Cc1cccc(Cl)c1)N1CCn2ccnc2C1 [Example 23, 7-(3-(3-chlorophenyl)-propiolyl)-5,6,7,8-tetrahydroimidazo[1,2-a]pyrazine]		
4.7	Cc1ccc2c(c1)CN(C(=O)C#Cc1cccc(Cl)c1)CC2 [Example 25, 2-(3-(3-chlorophenyl)-propiolyl)-7-methyl-1,2,3,4-tetrahydro-isoquinoline]		
8570	O=C(C#Cc1ccccn1)N1CCc2ccccc2C1 [Example 7, 2-(3-pyrid-2-yl-propiolyl)-1,2,3,4-tetrahydro-isoquinoline]		
	CC1Cc2ccccc2N1C(=O)C#Cc1cccc(Cl)c1 (centres unmarked) [Example 66, 1-(3-(3-chlorophenyl)-propiolyl)-2-methyl-indoline]	70	
8.4	COc1cccc2c1CN(C(=O)C#Cc1cccc(Cl)c1)CC2 [Example 29, 2-(3-(3-chlorophenyl)-propiolyl)-8-methoxy-1,2,3,4-tetrahydro-isoquinoline]		
3550	Cc1noc2c1CN(C(=O)C#Cc1ccccc1)CC2 [Example 8, 3-methyl-5-(3-phenyl-propiolyl)-4,5,6,7-tetrahydro-isoxazolo[4,5-c]pyridine]		
	N#Cc1cccc(C#CC(=O)N2CCc3ccccc3C2)c1 [Example 77, 2-(3-(3-cyano-phenyl)-propiolyl)-1,2,3,4-tetrahydro-isoquinoline]	90	
	Cc1ccc(C#CC(=O)N2CCc3ccccc3C2)cc1 [Example 39, 2-(3-(4-tolyl)-propiolyl)-1,2,3,4-tetrahydro-isoquinoline]	44	
	Cc1ccc(C#CC(=O)N2c3ccccc3CC2C)c(C)c1 (centres unmarked) [Example 63, 1-(3-(2,4-dimethylphenyl)-propiolyl)-2-methyl-indoline]	34	
4.5	Cc1cccc2c1CN(C(=O)C#Cc1cccc(Cl)c1)CC2 [Example 24, 2-(3-(3-chlorophenyl)-propiolyl)-8-methyl-1,2,3,4-tetrahydro-isoquinoline]		
7940	O=C(C#Cc1ccccc1)N1CCc2ccccc21 [Example 3, 1-(3-phenyl-propiolyl)-2,3-dihydro-indole]		
	CC1Cc2ccccc2N1C(=O)C#Cc1ccc(Cl)cc1Cl (centres unmarked) [Example 50, 1-(3-(2,4-dichlorophenyl)-propiolyl)-2-methyl-indoline]	16	
	Cc1ccccc1C#CC(=O)N1c2ccccc2CC1C (centres unmarked) [Example 74, 1-(3-(2-tolyl)-propiolyl)-2-methyl-indoline]	12	
	N#Cc1ccccc1C#CC(=O)N1CCc2ccccc2C1 [Example 76, 2-(3-(2-cyano-phenyl)-propiolyl)-1,2,3,4-tetrahydro-isoquinoline]	26	
	COc1ccc(Br)c(C#CC(=O)N2c3ccccc3CC2C)c1 (centres unmarked) [Example 73, 1-(3-(2-bromo-5-methoxyphenyl)-propiolyl)-2-methyl-indoline]	45	
2360	O=C(C#Cc1ccccc1)N1CCc2onc(-c3ccccc3)c2C1 [Example 9, 3-phenyl-5-(3-phenyl-propiolyl)-4,5,6,7-tetrahydro-isoxazolo[4,5-c]pyridine]		
	Cc1cc(C#CC(=O)N2c3ccccc3CC2C)ccc1F (centres unmarked) [Example 36, 1-(3-(4-fluoro-3-methylphenyl)-propiolyl)-2-methyl-indoline]	27	
	CC1Cc2ccccc2N1C(=O)C#Cc1ccc(F)cc1 (centres unmarked) [Example 65, 1-(3-(4-fluorophenyl)-propiolyl)-2-methyl-indoline]	34	

IC50 [nM]	SMILES	mGluR5 receptor (pig) (10 μM) Inhibition (%) [1] [%]	other results
3100	COc1ccc2c(c1)CCN(C(=O)C#Cc1ccccc1)C2 [Example 14, 6-methoxy-2-(3-phenyl-propiolyl)-1,2,3,4-tetrahydro-isoquinoline]		
	O=C(C#Cc1ccc(C(F)(F)F)cc1)N1CCc2ccccc2C1 [Example 41, 2-(3-(4-trifluoromethylphenyl)-propiolyl)-1,2,3,4-tetrahydro-isoquinoline]	16	
26	O=C(C#Cc1cccc(Cl)c1)N1CCn2cccc2C1 [Example 27, 2-(3-(3-chlorophenyl)-propiolyl)-1,2,3,4-tetrahydropyrrolo[1,2-a]pyrazine]		
	Cc1ccc(C#CC(=O)N2c3ccccc3CC2C)cc1C (centres unmarked) [Example 72, 1-(3-(3,4-dimethylphenyl)-propiolyl)-2-methyl-indoline]	25	
720	COc1cc2c(cc1O)CCN(C(=O)C#Cc1cccc(Cl)c1)C2 [Example 16, 2-(3-(3-chlorophenyl)-propiolyl)-6-hydroxy-7-methoxy-1,2,3,4-tetrahydro-isoquinoline]		
	Cc1ccc(C#CC(=O)N2CCc3ccccc3C2)cc1F [Example 67, 2-(3-(3-fluoro-4-methylphenyl)-propiolyl)-1,2,3,4-tetrahydro-isoquinoline]	12	
	Cc1ccc(C#CC(=O)N2c3ccccc3CC2C)cc1 (centres unmarked) [Example 40, 1-(3-(4-tolyl)-propiolyl)-2-methyl-indoline]	34	
55	Cc1ccc2c(c1)CCN(C(=O)C#Cc1cccc(Cl)c1)C2 [Example 20, 2-(3-(3-chlorophenyl)-propiolyl)-6-methyl-1,2,3,4-tetrahydro-isoquinoline]		
87	O=C(C#Cc1cccc(Cl)c1)N1CCc2ccc(O)cc2C1 [Example 28]		
	Cc1cccc(C#CC(=O)N2c3ccccc3CC2C)c1C (centres unmarked) [Example 46, 1-(3-(2,3-dimethylphenyl)-propiolyl)-2-methyl-indoline]	18	
	CC1Cc2ccccc2N1C(=O)C#Cc1ccc(F)cc1F (centres unmarked) [Example 33, 1-(3-(2,4-difluorophenyl)-propiolyl)-2-methyl-indoline]	27	
	O=C(C#Cc1ccccc1F)N1CCc2ccccc2C1 [Example 37, 2-(3-(2-fluorophenyl)-propiolyl)-1,2,3,4-tetrahydro-isoquinoline]	83	
1820	O=C(C#Cc1ccccc1)N1Cc2ccccc2C1 [Example 6, 2-(3-phenyl-propiolyl)-2,3-dihydro-isoindole]		
	O=C(C#Cc1ccc(F)cc1)N1CCc2ccccc2C1 [Example 64, 2-(3-(4-fluorophenyl)-propiolyl)-1,2,3,4-tetrahydro-isoquinoline]	88	
2720	COc1cc2c(cc1OC)CN(C(=O)C#Cc1cccc(Cl)c1)CC2 [Example 11, 2-(3-(3-chlorophenyl)-propiolyl)-6,7-dimethoxy-1,2,3,4-tetrahydro-isoquinoline]		
	COc1cccc(C#CC(=O)N2CCc3ccccc3C2)c1 [Example 34, 2-(3-(3-methoxyphenyl)-propiolyl)-1,2,3,4-tetrahydro-isoquinoline]	12	
	O=C(C#Cc1ccccc1)N1CCn2cnnc2C1 [Example 10, 7-(3-phenyl-propiolyl)-5,6,7,8-tetrahydro-[1,2,4]triazolo[4,3-a]pyrazine]		inhibition at 10 µM [1]: 16%
4.7	Cc1cccc2c1CCN(C(=O)C#Cc1cccc(Cl)c1)C2 [Example 26, 2-(3-(3-chlorophenyl)-propiolyl)-5-methyl-1,2,3,4-tetrahydro-isoquinoline]		
110	O=C(C#Cc1cccc(Cl)c1)N1CCCc2ccccc2C1 [Example 21, 2-(3-(3-chlorophenyl)-propiolyl)-2,3,4,5-tetrahydro-1H-benzo[c]azepine]		
	Cc1ccc(C#CC(=O)N2CCc3ccccc3C2)cc1C [Example 71, 2-(3-(3,4-dimethylphenyl)-propiolyl)-1,2,3,4-tetrahydro-isoquinoline]	43	
	O=C(C#Cc1ccccc1)N1CCc2ccccc2C1 [Example 43, 2-(3-phenyl-propiolyl)-1,2,3,4-tetrahydro-isoquinoline]	84	
	Cc1ccc(C#CC(=O)N2CCCc3ccccc32)cc1 [Example 57, 1-(3-(4-tolyl)-propiolyl)-1,2,3,4-tetrahydro-quinoline]	18	
